These results are taken from patent US20140377337A1 (priority 2012, published 2014).

SMILES strings stand for the structures.

One test relates to ocular district. The test can be described thus: Blood flow / anti-ischemic effect in the ocular district after PGE1 cream on the inner forearm. Type of test: in vivo, patient.
The next test concerns high myopia. The note with it: intravenously administered PGE1, conclusion of the cited publication; cited from earlier work.

As to `CCCCC[C@H](O)/C=C/[C@H]1[C@H](O)CC(=O)[C@@H]1CCCCCCC(=O)O` [PGE1, prostaglandin E1], in the test on ocular district (cream 20 μg per ml, patient weighing 60 kg, total dose 4 ml of cream (80 μg total of PGE1), transdermal), the “anti-ischemic effects in the ocular district versus 60 micrograms of PGE1 by intravenous infusion” value was “comparable”. The “effect on blood flow at the ocular district level” value in the test on ocular district (cream with 10-30 micrograms of PGE1 per ml, applied on the inner forearm) was “increased blood flow”. Further, the “duration of the effect of the intravenous administration” value in the test with high myopia is 6-8 weeks.
